In patent EP4623912A1, “A METHOD FOR DEFATTENING A STEATOTIC LIVER EX VIVO” (ETH Zurich, priority 2024, dated 2025):

How the values were obtained:
[1] = tested on: male C57BL/6N wild-type mice; experiment: HFD-induced hepatic steatosis (NAFLD) mouse model; assay type: in vivo; settings: HFD 12 weeks
Procedure: Male mice were used for NAFLD induction via feeding on HFD. ROSA26-LSL-spCas9 mice were injected with AAV-U6-Cu/7 gRNAs-TBG-Cre and AAV-U6-Fbxw8 gRNAs-TBG-Cre virus pools at a dose of 3×10^11 genome copies/mouse and fed in HFD for 12 weeks and livers were harvested after 6 hours fasting. To study PI4KB in NAFLD progression, male ROSA26-LSL-spCas9 mice were fed in HFD for 12 weeks to induce fatty liver before induction of hepatocyte specific depletion of PI4KB via intravenous administration of AAV8. After another 8 weeks, mice were dissected to harvest liver after 6 hours fasting. Likewise, male C57BL/6N wild-type mice and liver specific Atgl knockout mice (AtgILKO) were challenged with HFD for 12 weeks to induce fatty liver prior to administration of UCB9608 mixed in HFD (5 mg/kg) for another 8 weeks. Then the mice were dissected to harvest tissues and sample blood after 6 hours fasting Atgl floxed mice (The Jackson Lab strain) were crossed with Albumin-Cre (The Jackson Lab strain) and Adip-CreERT2 strains to obtain Alb-Atgfl^fl/fl and AdipcreERT2-Atgl^fl/fl mice (Sitnick,M.T. et al, Diabetes 62, (2013)), which deplete ATGL protein in the liver and the adipose depots (induced after tamoxifen gavage), respectively. Male mice from both strains were injected with 2-DG (2 g/kg BW) to induce glucose deprivation for 6 hours prior to tissue and blood harvesting.
Adipose depots, liver pieces, differentiated iBAs, HepG2, HEK293T and HEK293-AAV cell types were homogenized in RIPA buffer (50 mM Tris-HCl pH 7.4, 150 mM NaCl, 2 mM EDTA, 1.0% Triton X100, 0.5% sodium deoxycholate) with protease inhibitors (Complete, Roche) and phosphatase inhibitors (Halt phosphatase inhibitor cocktail, ThermoFisher). The homogenates were centrifuged at 12,000×g for 10 min at 4°C to remove debris and collect whole cell extract (WCE). The concentration of WCE was determined by DC Protein Assay (Bio-Rad). After boiling the sample with Lämmeli buffer at 95°C for 5 min, equal amount of proteins was loaded and separated on 12% SDS-PAGE. The proteins were transferred to nitrocellulose membrane and blotted by ATGL (1:1000, Cell Signaling), CGI-58 (1:1000, Proteintech), phospho-HSL(Ser660) (1:1000, Cell Signaling), PLIN1 (1:1000, Cell Signaling), HSL (1:1000, Cell Signaling), γ-tubulin (1:10000, Sigma), FLAG (1:10000, Sigma; 1:1000, Cell Signaling), MGL (1:1000, Abcam), HA (1:1000, Cell signaling), FBXW8 (1:100, Santa Cruz; 1:1000, Sigma), CUL7 (1:100, Santa Cruz), HSP90 (1:1000, Cell Signaling), K48 polyubiquitin (1:1000, Cell signaling), PI4KB (1:1000, Sigma), SACM1L (1:1000, Sigma), AKT1 (1:1000, Cell Signaling), phospho-AKT1(Ser473) (1:1000, Cell Signaling), TGN46 (1:1000, Abcam), MAOA (1:1000, Abcam), PLIN2 (1:1000, Abcam), PMP70 (1:10000, Sigma), Calnexin (1:1000, Cell Signaling), ARF1 (1:1000, Invitrogen), GAPDH (1:1000, Cell Signaling), RAB7 (1:1000, Cell Signaling), alpha 1 Sodium Potassium ATPase (1:1000, Abcam), Cleaved Caspase-3 (1:1000, Cell Signaling), phospho-AMPKα (Thr172) (1:1000, Cell Signaling), AMPKα (1:1000, Cell Signaling) and GM130 (1:1000, Proteintech). […]
Plasma collected from mice under different conditions was used to determine levels of lipolysis and liver injury. FFA levels were measured via NEFA assay kit (Wako NEFA kit). TG levels were determined via TG assay kit (Roche Trig/GB reagent). […] The absorbance was monitored using Synergy Gen5 Platereader.
Weight of liver pieces (50-100 mg) was recorded before homogenization by 1 mL isopropanol per 50 mg tissue. […]

[2] = Precipitation of DMSO solution on mixing with water; assay type: physicochemical; settings: dissolved in DMSO, not circulated
C57BL/6N male mice = experiment: Indirect calorimetry in HFD-fed mice; assay type: in vivo, mouse; settings: HFD mixed with UCB9608 (5 mg/kg) 3 weeks, vs DMSO
Procedure: 8-10 weeks old C57BL/6N male mice were fed on HFD mixing with DMSO or UCB9608 (5 mg/kg) for 3 weeks before indirect calorimetry measurements were performed with Phenomaster (TSE systems) according to the manufacturer's instructions. Animals were single caged and adapted to the metabolic cage for 48h prior to metabolic recording. The energy expenditure between both groups was analyzed via ANCOVA method and RER was analyzed via two-way ANOVA method.

[3] = then UCB9608 in HFD (5 mg/kg) 8 weeks, vs DMSO

COc1ccc(NC(=O)N2CCN(c3nc(N)nc4c3cnn4C)[C@@H](C)C2)c(C)c1 [UCB9608]
ATGL protein levels in the gWAT [1, 3]: significantly greater | ATGL protein levels in the iBAT [1, 3]: significantly greater | ATGL protein levels in the liver [1, 3]: significantly greater | hepatic steatosis (hepatic TG levels) ([1]; then UCB9608 in HFD (5 mg/kg) 8 weeks, requires ATGL in the liver (Fig. 6h)): substantially attenuated | plasma FFA levels ([1]; then UCB9608 mixed in HFD (5 mg/kg) 8 weeks, vs DMSO (Fig. 6g)): significantly increased | behaviour of DMSO solution mixed with water [2]: precipitated | energy expenditure (C57BL/6N male mice): higher
